Test results reported in patent US5985836A, “Alpha-1 proteinase inhibitor binding peptides” (Bayer Corporation, priority 1998, dated 1999).
Ends that are not written are not given here.

Legend:
Details in all cases: 1 ml Eff. II+III, 4° C.
[1] = biological target: T1, apolipoprotein alpha-1 (Apo A-1) (Homo sapiens, UniProt P02647); assay: Purification from Effluent II+III, Apo A-1 mass balance; type: binding
T1 construct: Eff; II+III is a process intermediate in the Cohn plasma fractionation process; tissue Bayer Corporation (Clayton, N.C.); host or cells: plasma fraction: Cohn Effluent II+III
How it was run: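 Peptide-ligand columns were loaded with 1 ml Cohn Effluent II+III (20% v/v ethanol, 20-25 mg/ml hSA, ~1 mg/ml A1PI, other plasma proteins at 0.1-1 mg/ml) using a 10 min residence time at 4° C. Step elutions at 865 μl/min used 1M NaCl, 3M NaCl, then 2% acetic acid, and protein mass balances were tracked across fractions.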

[2] = tested on: Immunoglobulin A (IgA); assay: Purification from Effluent II+III, IgA mass balance; type: binding, human
How it was run: (§1)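 Run at 4° C: Effluent II+III (1 ml, 20% ethanol) loaded with a 10 min residence. Elution at 865 μl/min, in sequence 1M NaCl, 3M NaCl, 2% acetic acid; A1PI, IgA, IgG and haptoglobin accounted for in each fraction.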

[3] = tested on: Immunoglobulin G (IgG); assay: Purification from Effluent II+III, IgG mass balance; type: binding, human
How it was run: as §1

[4] = * as in Tables 4, 5 (below detection limit)

T1 sequence (P02647 19-267): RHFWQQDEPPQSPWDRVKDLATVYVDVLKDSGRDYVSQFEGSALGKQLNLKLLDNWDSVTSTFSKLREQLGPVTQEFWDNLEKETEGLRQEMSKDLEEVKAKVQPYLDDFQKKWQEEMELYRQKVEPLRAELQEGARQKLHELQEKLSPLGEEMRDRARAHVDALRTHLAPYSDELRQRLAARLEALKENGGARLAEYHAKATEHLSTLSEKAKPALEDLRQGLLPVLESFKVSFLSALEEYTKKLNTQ

Substance: VIWLVR
- Percent Eluted by Fraction, 1M NaCl [1]: 0%
- Percent Eluted by Fraction, 2% Acetic Acid [1]: 48%
- Percent Eluted by Fraction, 3M NaCl [1]: 0%
- Percent Eluted by Fraction, Flow [1]: 52%
- Mass Protein per Eluate Fraction, 2% Acetic Acid [1, 4]: 0.29 mg
- Mass Protein per Eluate Fraction, Flow [1, 4]: 0.32 mg
- Percent Eluted by Fraction, 1M NaCl [2]: 24%
- Percent Eluted by Fraction, 2% Acetic Acid [2]: 39%
- Percent Eluted by Fraction, 3M NaCl [2]: 0%
- Percent Eluted by Fraction, Flow [2]: 37%
- Mass Protein per Eluate Fraction, 1M NaCl [2, 4]: 0.11 mg
- Mass Protein per Eluate Fraction, 2% Acetic Acid [2, 4]: 0.18 mg
- Mass Protein per Eluate Fraction, Flow [2, 4]: 0.17 mg
- Percent Eluted by Fraction, 1M NaCl [3]: 6%
- Percent Eluted by Fraction, 2% Acetic Acid [3]: 0%
- Percent Eluted by Fraction, 3M NaCl [3]: 0%
- Percent Eluted by Fraction, Flow [3]: 94%
- Mass Protein per Eluate Fraction, 1M NaCl [3, 4]: 0.02 mg
- Mass Protein per Eluate Fraction, Flow [3, 4]: 0.36 mg
